Reference: ChEMBL document CHEMBL5518174 (Eur J Med Chem, 2024)

Assays:
MDA-MB-231 = experiment: Cytotoxicity against human MDA-MB-231 cells assessed as inhibition of cell growth incubated for 48 hrs by Celltiter-glo assay; assay type: functional, cell-based; conditions: MDA-MB-231, 48 h
[1] = Upregulation of acetylated H4 protein expression in human NCI-H1975 cells assessed as fold change at 0.1 uM incubated for 24 hrs by immunoblotting analysis (reference value: 1); assay type: functional
[2] = target: T1, Polyamine deacetylase HDAC10 (Homo sapiens, UniProt Q969S8); experiment: Inhibition of recombinant human HDAC10 using acetylated luminogenic substrate incubated for 10 mins by ultra-glo recombinant firefly luciferase based luminescence assay
T1 sequence (Q969S8 whole entry): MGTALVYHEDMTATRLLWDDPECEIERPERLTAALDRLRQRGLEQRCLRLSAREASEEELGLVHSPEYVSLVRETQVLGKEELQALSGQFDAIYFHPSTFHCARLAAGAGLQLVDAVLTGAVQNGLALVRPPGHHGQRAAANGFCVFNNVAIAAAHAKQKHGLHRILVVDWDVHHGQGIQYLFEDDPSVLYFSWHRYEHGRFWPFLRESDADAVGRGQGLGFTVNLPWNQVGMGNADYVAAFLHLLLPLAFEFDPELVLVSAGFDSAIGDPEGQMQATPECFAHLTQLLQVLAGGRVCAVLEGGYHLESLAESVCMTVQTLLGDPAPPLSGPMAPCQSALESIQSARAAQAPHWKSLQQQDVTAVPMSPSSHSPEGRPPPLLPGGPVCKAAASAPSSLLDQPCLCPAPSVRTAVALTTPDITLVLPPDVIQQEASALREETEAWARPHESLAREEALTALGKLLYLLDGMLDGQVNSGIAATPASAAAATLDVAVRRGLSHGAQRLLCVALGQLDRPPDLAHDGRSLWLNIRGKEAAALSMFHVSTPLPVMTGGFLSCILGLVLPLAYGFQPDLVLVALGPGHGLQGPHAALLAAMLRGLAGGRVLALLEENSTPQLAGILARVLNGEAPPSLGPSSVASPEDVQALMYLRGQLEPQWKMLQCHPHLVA

[3] = Effect on HDAC1 protein expression in human NCI-H1975 cells assessed as fold change at 0.05 uM incubated for 24 hrs by immunoblotting analysis (reference value: 1); assay type: functional
[4] = Downregulation of HDAC1 protein expression in human NCI-H1975 cells assessed as fold change at 0.1 uM incubated for 24 hrs by immunoblotting analysis (reference value: 1); assay type: functional
[5] = Downregulation of HDAC1 protein expression in human MDA-MB-231 cells assessed as fold change at 0.1 uM incubated for 24 hrs by immunoblotting analysis (reference value: 1); assay type: functional
[6] = Downregulation of HDAC3 protein expression in human MDA-MB-231 cells assessed as fold change at 0.05 uM incubated for 24 hrs by immunoblotting analysis (reference value: 1); assay type: functional
[7] = Downregulation of HDAC3 protein expression in human MDA-MB-231 cells assessed as fold change at 0.1 uM incubated for 24 hrs by immunoblotting analysis (reference value: 1); assay type: functional
[8] = Downregulation of HDAC8 protein expression in human NCI-H1975 cells assessed as fold change at 0.05 uM incubated for 24 hrs by immunoblotting analysis (reference value: 1); assay type: functional
[9] = Effect on HDAC8 protein expression in human MDA-MB-231 cells assessed as fold change at 0.05 uM incubated for 24 hrs by immunoblotting analysis (reference value: 1); assay type: functional
[10] = Effect on HDAC10 protein expression in human NCI-H1975 cells assessed as fold change at 0.05 uM incubated for 24 hrs by immunoblotting analysis (reference value: 1); assay type: functional
[11] = Effect on HDAC4 protein expression in human NCI-H1975 cells assessed as fold change at 0.05 uM incubated for 24 hrs by immunoblotting analysis (reference value: 1); assay type: functional
[12] = Effect on HDAC5 protein expression in human NCI-H1975 cells assessed as fold change at 0.05 uM incubated for 24 hrs by immunoblotting analysis (reference value: 1); assay type: functional
[13] = Effect on HDAC5 protein expression in human NCI-H1975 cells assessed as fold change at 0.1 uM incubated for 24 hrs by immunoblotting analysis (reference value: 1); assay type: functional
[14] = Downregulation of HDAC5 protein expression in human MDA-MB-231 cells assessed as fold change at 0.1 uM incubated for 24 hrs by immunoblotting analysis (reference value: 1); assay type: functional
[15] = Downregulation of HDAC7 protein expression in human NCI-H1975 cells assessed as fold change at 0.05 uM incubated for 24 hrs by immunoblotting analysis (reference value: 1); assay type: functional
[16] = Downregulation of HDAC7 protein expression in human MDA-MB-231 cells assessed as fold change at 0.1 uM incubated for 24 hrs by immunoblotting analysis (reference value: 1); assay type: functional
[17] = Downregulation of HDAC9 protein expression in human NCI-H1975 cells assessed as fold change at 0.05 uM incubated for 24 hrs by immunoblotting analysis (reference value: 1); assay type: functional
[18] = Effect on HDAC9 protein expression in human MDA-MB-231 cells assessed as fold change at 0.05 uM incubated for 24 hrs by immunoblotting analysis (reference value: 1); assay type: functional
[19] = Downregulation of HDAC10 protein expression in human MDA-MB-231 cells assessed as fold change at 0.05 uM incubated for 24 hrs by immunoblotting analysis (reference value: 1); assay type: functional
[20] = Downregulation of HDAC10 protein expression in human MDA-MB-231 cells assessed as fold change at 0.1 uM incubated for 24 hrs by immunoblotting analysis (reference value: 1); assay type: functional
[21] = Effect on HDAC11 protein expression in human NCI-H1975 cells assessed as fold change at 0.05 uM incubated for 24 hrs by immunoblotting analysis (reference value: 1); assay type: functional
[22] = Effect on HDAC11 protein expression in human NCI-H1975 cells assessed as fold change at 0.1 uM incubated for 24 hrs by immunoblotting analysis (reference value: 1); assay type: functional
NCI-H1975 = experiment: Antitumor activity against human NCI-H1975 cells xenografted in athymic nude BALB/c mouse assessed as average tumor size at 6 mg/kg, ip administered 5 times a week for 3 weeks and measured on day 22 (reference value: 776.4 +/- 118.1 mm3); assay type: functional; conditions: time 22 day

CCOc1ccc(-c2nc(C(=O)NCc3ccc(C(=O)NO)cc3)c3[nH]c(=O)n(-c4cccnc4OC)c3n2)cn1
IC50 (MDA-MB-231): 510 nM | fold change (FC) [1]: 1.95 | IC50 [2]: 18.9 nM | fold change (FC) [3]: 1.44 | fold change (FC) [4]: 0.95 | fold change (FC) [5]: 0.88 | fold change (FC) [6]: 0.82 | fold change (FC) [7]: 0.65 | fold change (FC) [8]: 0.85 | fold change (FC) [9]: 1.7 | fold change (FC) [10]: 1.09 | fold change (FC) [11]: 1.33 | fold change (FC) [12]: 2.38 | fold change (FC) [13]: 1.53 | fold change (FC) [14]: 0.99 | fold change (FC) [15]: 0.94 | fold change (FC) [16]: 0.58 | fold change (FC) [17]: 0.5 | fold change (FC) [18]: 1.08 | fold change (FC) [19]: 0.89 | fold change (FC) [20]: 0.88 | fold change (FC) [21]: 1.15 | fold change (FC) [22]: 1.85 | Activity (NCI-H1975): 331.8 mm3
